PubChem BioAssay (NCI)
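Values below derive from 48-hour exposures of cells grown in 96-well plates, with endpoints linearly interpolated between the two concentrations bracketing the appropriate inhibition level. Here, GI50 denotes the concentration required for 50% inhibition of growth. TGI: concentration producing complete growth inhibition.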

Legend:
Experiment in all cases: DTP human tumour cell line panel, 48 h
[1] = test system: HCC-2998 colon
[2] = test system: U251 CNS
[3] = test system: LOX IMVI melanoma
[4] = test system: HCT-116 colon
[5] = test system: A549 NSCLC
[6] = test system: NCI-H226 lung
[7] = test system: SR leukemia
[8] = test system: SN12C renal
[9] = test system: SF-295 CNS
[10] = test system: MALME-3M melanoma
[11] = test system: T-47D breast
[12] = test system: UACC-257 melanoma
[13] = test system: DU-145 prostate
[14] = test system: PC-3 prostate
[15] = test system: BT-549 breast
[16] = test system: OVCAR-8 ovarian
[17] = test system: K-562 leukemia
[18] = test system: NCI/ADR-RES ovarian
[19] = test system: SF-268 CNS
[20] = test system: HS 578T breast
[21] = test system: IGROV1 ovarian
[22] = test system: SF-539 CNS
[23] = test system: RPMI-8226 leukemia
[24] = test system: NCI-H522 lung
[25] = test system: UACC-62 melanoma
[26] = test system: SK-OV-3 ovarian
[27] = test system: HT29 colon
[28] = test system: MCF7 breast
[29] = test system: OVCAR-5 ovarian
[30] = test system: SNB-19 CNS
[31] = test system: MOLT-4 leukemia
[32] = test system: SNB-75 CNS
[33] = test system: COLO 205 colon
[34] = test system: TK-10 renal
[35] = test system: MDA-MB-435
[36] = test system: SK-MEL-5 melanoma
[37] = test system: OVCAR-3 ovarian
[38] = test system: SW-620 colon
[39] = test system: EKVX NSCLC
[40] = test system: HL-60(TB) leukemia
[41] = test system: OVCAR-4 ovarian
[42] = test system: SK-MEL-2 melanoma
[43] = test system: CAKI-1 renal
[44] = test system: A498 renal
[45] = test system: NCI-H460 lung
[46] = test system: UO-31 renal
[47] = test system: CCRF-CEM leukemia
[48] = test system: MDA-MB-231 breast
[49] = test system: 786-0 renal
[50] = test system: KM12 colon
[51] = test system: NCI-H23 lung
[52] = test system: HOP-62 NSCLC
[53] = test system: RXF 393 renal
[54] = test system: HOP-92 NSCLC
[55] = test system: HCT-15 colon
[56] = test system: SK-MEL-28 melanoma
[57] = test system: ACHN renal
[58] = test system: M14 melanoma

## CCC(=C(c1ccc(OCCN(C)C)cc1)c1ccc(OCCN(C)C)cc1)c1ccc(Cl)cc1
[1]
  GI50: 2.04 µM
  TGI: 5.73 µM
[2]
  GI50: 0.67 µM
  TGI: 2.29 µM
[3]
  GI50: 0.43 µM
  TGI: 0.848 µM
[4]
  GI50: 2.58 µM
  TGI: 6.24 µM
[5]
  GI50: 2.56 µM
  TGI: 6.32 µM
[6]
  GI50: 4.12 µM
  TGI: 8.41 µM
[7]
  GI50: 0.659 µM
  TGI: 4.74 µM
[8]
  GI50: 3.76 µM
  TGI: 7.52 µM
[9]
  GI50: 3.09 µM
  TGI: 6.49 µM
[10]
  GI50: 0.855 µM
  TGI: 3.3 µM
[11]
  GI50: 3.17 µM
  TGI: 8.03 µM
[12]
  GI50: 3.7 µM
  TGI: 7.39 µM
[13]
  GI50: 3.11 µM
  TGI: 6.67 µM
[14]
  GI50: 1.26 µM
  TGI: 4.56 µM
[15]
  GI50: 4.29 µM
  TGI: 8.38 µM
[16]
  GI50: 3.21 µM
  TGI: 6.96 µM
[17]
  GI50: 0.541 µM
  TGI: 1.77 µM
[18]
  GI50: 3.22 µM
  TGI: 6.68 µM
[19]
  GI50: 3.54 µM
  TGI: 7.48 µM
[20]
  GI50: 3.48 µM
  TGI: 7.79 µM
[21]
  GI50: 2.17 µM
  TGI: 5.6 µM
[22]
  GI50: 2.75 µM
  TGI: 6.1 µM
[23]
  GI50: 0.598 µM
  TGI: 1.46 µM
[24]
  GI50: 1.96 µM
  TGI: 5.77 µM
[25]
  GI50: 0.492 µM
  TGI: 1.12 µM
[26]
  GI50: 4.26 µM
  TGI: 8.08 µM
[27]
  GI50: 0.427 µM
  TGI: 1.11 µM
[28]
  GI50: 0.522 µM
  TGI: 1.67 µM
[29]
  GI50: 3.91 µM
  TGI: 7.56 µM
[30]
  GI50: 2.84 µM
  TGI: 6.29 µM
[31]
  GI50: 0.745 µM
  TGI: 2.41 µM
[32]
  GI50: 3.32 µM
  TGI: 7.53 µM
[33]
  GI50: 1.14 µM
  TGI: 4.77 µM
[34]
  GI50: 4.05 µM
  TGI: 7.75 µM
[35]
  GI50: 0.575 µM
  TGI: 1.41 µM
[36]
  GI50: 3.99 µM
  TGI: 7.49 µM
[37]
  GI50: 0.804 µM
  TGI: 2.74 µM
[38]
  GI50: 0.549 µM
  TGI: 1.22 µM
[39]
  GI50: 3.85 µM
  TGI: 7.67 µM
[40]
  GI50: 0.522 µM
  TGI: 1.23 µM
[41]
  GI50: 3.39 µM
  TGI: 7.36 µM
[42]
  GI50: 4.48 µM
  TGI: 8.49 µM
[43]
  GI50: 3.17 µM
  TGI: 6.48 µM
[44]
  GI50: 3.58 µM
  TGI: 7.07 µM
[45]
  GI50: 2.67 µM
  TGI: 6.03 µM
[46]
  GI50: 3.23 µM
  TGI: 6.6 µM
[47]
  GI50: 0.609 µM
  TGI: 1.79 µM
[48]
  GI50: 2.42 µM
  TGI: 5.75 µM
[49]
  GI50: 3.7 µM
  TGI: 7.72 µM
[50]
  GI50: 2.54 µM
  TGI: 5.67 µM
[51]
  GI50: 3.65 µM
  TGI: 7.26 µM
[52]
  GI50: 3.67 µM
  TGI: 7.95 µM
[53]
  GI50: 0.897 µM
  TGI: 4.15 µM
[54]
  GI50: 0.736 µM
  TGI: 4.01 µM
[55]
  GI50: 0.77 µM
  TGI: 2.67 µM
[56]
  GI50: 0.462 µM
  TGI: 0.888 µM
[57]
  GI50: 1.31 µM
  TGI: 4.33 µM

## Cc1cccc(/C=C/C(=O)Nc2ncc(Cc3cccc(C)c3)s2)c1
[1]
  GI50: 1.68 µM
  TGI: > 100 µM
[58]
  GI50: 0.568 µM
  TGI: 1.89 µM
[2]
  GI50: 1.11 µM
  TGI: > 100 µM
[3]
  GI50: 0.841 µM
  TGI: > 100 µM
[4]
  GI50: 1.1 µM
  TGI: > 100 µM
[5]
  GI50: 1.02 µM
  TGI: > 100 µM
[6]
  GI50: 1.28 µM
  TGI: > 100 µM
[7]
  GI50: 0.179 µM
  TGI: > 100 µM
[8]
  GI50: 1.68 µM
  TGI: > 100 µM
[9]
  GI50: 0.329 µM
  TGI: 2.46 µM
[10]
  GI50: 1.3 µM
  TGI: > 100 µM
[11]
  GI50: 0.575 µM
  TGI: > 100 µM
[12]
  GI50: 1.59 µM
  TGI: > 100 µM
[13]
  GI50: 0.876 µM
  TGI: > 100 µM
[14]
  GI50: 0.875 µM
  TGI: > 100 µM
[15]
  GI50: 1.29 µM
  TGI: > 100 µM
[16]
  GI50: 1.36 µM
  TGI: > 100 µM
[17]
  GI50: 0.117 µM
  TGI: > 100 µM
[18]
  GI50: 0.869 µM
  TGI: > 100 µM
[19]
  GI50: 2.54 µM
  TGI: > 100 µM
[20]
  GI50: 1.04 µM
  TGI: > 100 µM
[21]
  GI50: 1.67 µM
  TGI: > 100 µM
[22]
  GI50: 0.863 µM
  TGI: > 32.5 µM
[23]
  GI50: 1.14 µM
  TGI: > 100 µM
[24]
  GI50: 0.599 µM
  TGI: 2.08 µM
[25]
  GI50: 0.144 µM
  TGI: > 100 µM
[26]
  GI50: 1.67 µM
  TGI: > 100 µM
[27]
  GI50: 0.739 µM
  TGI: 2.58 µM
[28]
  GI50: 0.82 µM
  TGI: > 100 µM
[29]
  GI50: 1.44 µM
  TGI: > 100 µM
[30]
  GI50: 1.4 µM
  TGI: > 100 µM
[31]
  GI50: 0.71 µM
  TGI: > 100 µM
[32]
  GI50: 0.903 µM
  TGI: > 20.5 µM
[33]
  GI50: 0.766 µM
  TGI: 3 µM
[34]
  GI50: > 25.6 µM
  TGI: > 100 µM
[35]
  GI50: 0.303 µM
  TGI: 1.14 µM
[36]
  GI50: 1.23 µM
  TGI: > 81.1 µM
[37]
  GI50: 1.05 µM
  TGI: 8.55 µM
[38]
  GI50: 1.13 µM
  TGI: > 100 µM
[39]
  GI50: 1.22 µM
  TGI: > 100 µM
[40]
  GI50: 0.579 µM
  TGI: 1.97 µM
[41]
  GI50: 1.39 µM
  TGI: > 100 µM
[42]
  GI50: 0.627 µM
  TGI: 4.75 µM
[43]
  GI50: 0.518 µM
  TGI: > 100 µM
[44]
  GI50: > 27.7 µM
  TGI: > 100 µM
[45]
  GI50: 0.545 µM
  TGI: > 100 µM
[46]
  GI50: 0.618 µM
  TGI: > 100 µM
[47]
  GI50: 0.884 µM
  TGI: > 100 µM
[48]
  GI50: 2.92 µM
  TGI: > 100 µM
[49]
  GI50: 1.19 µM
  TGI: > 100 µM
[50]
  GI50: 0.339 µM
  TGI: > 75 µM
[51]
  GI50: 6.62 µM
  TGI: > 100 µM
[52]
  GI50: 0.633 µM
  TGI: > 100 µM
[53]
  GI50: 0.91 µM
  TGI: 5.95 µM
[54]
  GI50: 1.25 µM
  TGI: > 100 µM
[55]
  GI50: 0.585 µM
  TGI: > 100 µM
[56]
  GI50: 1.93 µM
  TGI: > 100 µM
[57]
  GI50: 1.06 µM
  TGI: > 100 µM
